Columns and labels:
[1] = test system: 55 targets among GCPRs, ion channels, enzymes and transporters; details: binding panel tested at 10 µM; ion channels up to 30 µM
IL-8/CINC1 = IL-8/CINC1 immunofluorescence of paw sections of oxaliplatin rats; type: in vivo, male Wistar rats; details: 30 mg/kg os, rat paw sections
Experimental: Animals were sacrificed and a biopsy (3 mm) was taken from pad of the right hind paw. Biopsies were immediately placed in Zamboni’s fixative, where they were left at 4 °C. Tissues were then transferred to 20% sucrose for at least 24 h and used for immunohistochemistry analysis. Specimens were frozen in Optimal Cutting Temperature compound (OCT, Sakura Finetek Inc, CA, USA) and sliced into 20 μm thick serial coronal sections by cryostat AMES LAB-TEK (Westmont, Illinois, USA). […]
Five slices were examined for each animal. For each slide, 4 fields were counted. For quantitative evaluation of IL-8/CINC-1 (the homolog of IL-8 in rat) and […], photomicrographs for each condition were analysed by ImageJ software (National Institutes of Health, Bethesda, MD, USA) as previously described. […] The signal was first measured on the tissue in an area devoid of signal at visual inspection and assumed as background; the threshold was then set at 1.5 times the background and the surface area and mean grey intensity were measured for all areas above the threshold. […]

[2] = test system: oxaliplatin-induced cold allodynia; experiment: Oxaliplatin-induced cold allodynia (acetone test); type: in vivo, male Wistar rats; details: 30 mg/kg os for 24 days; from day 5 (P < 0.01) to final test day (P < 0.001)
Experimental: (§1) Behavioural tests were performed on male Wistar rats (200–250 g, Harlan, Italy) housed in the animal care facility at the Department of Pharmacy of the University of Naples Federico II, Italy, as previously described. Animals were housed, in a group of five, in a room with controlled temperature (22 ± 1 °C), humidity (60 ± 10%) and light (12 h per day); food and water were available ad libitum. All animals were weighted on the day of each treatment. All behavioural tests were performed between 09:00 and 17:00 h, and the animals were used only once. Animal care and manipulations were conducted in conformity with International and National law and policies (EU Directive 2010/63/EU for animal experiments, ARRIVE guidelines, and the Basel declaration including the 3R concept). The procedures reported here were approved by the Institutional Committee on the Ethics of Animal Experiments (CVS) of the University of Naples Federico II and by Ministero della Salute under protocol no. 2014-00884607. […]
Cold sensitivity was measured as the number of foot withdrawal responses after application of acetone to the dorsal surface of the paw[8],[22]. […] The mean of paw withdrawal (expressed in numbers) was determined from an average of six separate measurements. Cold responses were measured before (day -1) and then 3, 5, 7, 10, 14 and 21 days after first administration of oxaliplatin or vehicle. […]

F11 cells = experiment: Cell viability assay in F11 neuronal cells; details: 24 h, 5–20 µM
Experimental: For the subsequent experiments, DF2726A was used at a final concentration of 1 µM, and oxaliplatin at a final concentration of 20 µM. For comparison, paclitaxel alone or in combination with DF2726A was also used.
F11 hybridoma cells (ECACC 08062601), chosen as a model of DRG neurons[22],[32],[33] were cultivated in DMEM (Euroclone, Milan, Italy) supplemented with 10% FBS (Sigma-Aldrich, St. Louis, MO, USA), 1% penicillin/streptomycin (Euroclone, MI, Italy) and 1% glutamine (Euroclone) at 37 °C, in humidified 95% air with 5% CO2 atmosphere. For all the experiments, cells were used at 18th passage.
Supplementary Fig. 2: Effect of DF2726A, oxaliplatin and paclitaxel treatment on neuronal cell
viability. Cell viability assay of F11 cells after treatment at different concentrations of DF 2726A
(DF; 1-20 µM), oxaliplatin (OXA, 5-60 µM), paclitaxel (PAC, 5-20 nM) and the combination of 20
µM oxaliplatin+DF2726A (Oxa+DF) and paclitaxel+DF2726A (PAC+DF) at 24 h. Data are means

p-FAK = p-FAK western blotting in F11-derived neurons; type: cell-based; details: 24 h
[3] = test system: oxaliplatin-induced mechanical allodynia; experiment: Oxaliplatin-induced mechanical allodynia (Dynamic Plantar Aesthesiometer); type: in vivo, male Wistar rats; details: 30 mg/kg os for 24 days; at 14 (P < 0.05) and 21 days (P < 0.01) vs Oxa + saline
Experimental: as §1
To assess for changes in sensation or in the development of mechanical allodynia, sensitivity to tactile stimulation was measured using the Dynamic Plantar Aesthesiometer (DPA, Ugo Basile, Italy), which is an automated version of the von Frey hair assessment. […] The means of paw withdrawal (expressed in grams) were calculated from an average of four separate measurements. […]

Structure (SMILES): CC(C)(C(=O)O)c1ccc(Nc2nc(C(F)(F)F)cs2)cc1 [DF2726A]
- Selectivity for 55 targets in counterscreens [1]: > 100 fold
- Effect on oxaliplatin-increased IL-8/CINC1 signalling in the dermis (IL-8/CINC1): significantly attenuated
- Effect on oxaliplatin-induced cold allodynia (acetone paw withdrawal responses) [2]: marked attenuation of cold allodynia
- Neuronal cell viability (F11 cells): ineffective in modulating neuronal cell viability
- p-FAK levels, oxaliplatin-treated neurons (p-FAK; DF2726A 1 µM + oxaliplatin 20 µM): decreased in the presence of DF2726A
- p-FAK levels, paclitaxel-treated neurons (p-FAK; DF2726A + paclitaxel 10 nM): decreased in the presence of DF2726A
- Effect on oxaliplatin-induced mechanical allodynia (paw withdrawal threshold, DPA test) [3]: significant anti-allodynic effect

Source: article PMC6692352, “DF2726A, a new IL-8 signalling inhibitor, is able to counteract chemotherapy-induced neuropathic pain” (Scientific Reports, 2019)
